Assay results: publication PMC6188150, “A small molecule regulator of tissue transglutaminase conformation inhibits the malignant phenotype of cancer cells” (Oncotarget, 2018)

Target: T1, tissue transglutaminase (tTG) (Homo sapiens, UniProt P21980)
T1 construct: gene TGM2; recombinant tTG
T1 sequence (P21980 2-687): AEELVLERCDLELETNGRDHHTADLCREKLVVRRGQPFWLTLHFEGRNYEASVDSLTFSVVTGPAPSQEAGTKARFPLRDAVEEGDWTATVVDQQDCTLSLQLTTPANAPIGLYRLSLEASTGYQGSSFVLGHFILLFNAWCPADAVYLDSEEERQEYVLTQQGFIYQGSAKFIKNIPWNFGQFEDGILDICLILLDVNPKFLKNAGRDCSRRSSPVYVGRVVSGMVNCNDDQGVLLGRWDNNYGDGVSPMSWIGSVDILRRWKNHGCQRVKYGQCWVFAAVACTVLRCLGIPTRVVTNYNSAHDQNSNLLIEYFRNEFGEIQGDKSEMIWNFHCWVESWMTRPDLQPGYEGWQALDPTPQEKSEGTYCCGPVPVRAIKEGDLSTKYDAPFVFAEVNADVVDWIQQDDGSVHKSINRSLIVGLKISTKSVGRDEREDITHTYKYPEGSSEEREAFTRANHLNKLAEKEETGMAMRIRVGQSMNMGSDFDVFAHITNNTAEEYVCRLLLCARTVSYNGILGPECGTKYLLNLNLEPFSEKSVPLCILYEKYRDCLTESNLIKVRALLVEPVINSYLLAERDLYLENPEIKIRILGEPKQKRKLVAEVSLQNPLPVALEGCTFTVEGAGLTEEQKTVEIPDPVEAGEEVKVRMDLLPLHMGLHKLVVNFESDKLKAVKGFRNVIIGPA
Test: bodipy-GTP-γS fluorescence binding assay after CaCl2 then EDTA; also BPA/NNDC crosslinking inhibition and trypsin susceptibility

## Cc1ccc(N/C=C2/C(=O)NC(=O)N(c3ccccc3)C2=O)cc1CN1C(=O)c2ccccc2C1=O [TTGM 5826]
  EC50: 20 µM
